The source of these data is patent US4029778A (priority 1969, dated 1977).

Data set [1] can be described thus: Hepatoma 130 tumor growth inhibition and lethality, oral (Table 5). It is filed as in vivo. The note with it: in vivo, 1 × dose. The text has this:
(§1) The esters of the invention have shown effect in inhibiting the growth of several tumors, e.g., Ehrlich ascites, Hepatoma AH 130, lymphocytic leukemia (L1210), Walker 256 and Harding-Passey Melanoma according to the procedure of Cancer Chemotherapy National Service Center (Ref.: Cancer Chemotherapy Reports, December 1962).

Another data set has as its system Hepatoma 130. The data set is described as above. The note with it: 1 × dose. It counts as in vivo.
From the text: as §1

Data set [2] is described as follows: Harding-Passey Melanoma growth inhibition and lethality, oral (Table 5). It counts as in vivo. The note with it: in vivo, 11 × dose.
From the text: as §1

In the next data set the test system is Harding-Passey Melanoma. The description is as above. It is filed as in vivo. As to conditions: 11 × dose.
From the text: as §1

The nature of data set [3]: Walker 256 tumor growth inhibition and lethality, oral (Table 5). It counts as in vivo. The note with it: in vivo.
From the text: as §1

The subject of the next data set is Walker 256. Described as above. It counts as in vivo.
From the text: as §1

The test system of data set [4] is Hepatoma 130 tumor. As to conditions: in vivo, ip.
Data set [5] in a line: in vivo. The note with it: ip.
A further data set has as its system tumors. The experiment in a line: antitumor activity (statement in words). It is filed as in vivo. The method, then: as §1
The esters of this invention were tested for effectiveness in inhibiting the growth of Ehrlich ascites, Hepatoma 130, lymphocytic leukemia (L 1210), and Harding-Passey Melanoma, and Walker 256 tumors. The administration was by the intraperitoneal route in each case.

Data set [6] relates to Walker 256 tumor. The note with it: in vivo.
Data set [7] has as its system Ehrlich ascites tumor. As to conditions: in vivo, ip; for Lethality: 1000 mg/kg.
Data set [8] deals with Harding-Passey Melanoma tumor.
Data set [9] has as its system Ehrlich ascites tumor. As to the kind of experiment: animal or person. As to conditions: ip, read-out: ED50 (Effect).
The subject of data set [10] is Hepatoma 130 tumor. As to the kind of experiment: animal or person. As to conditions: ip, read-out: ED50 (Effect).
In data set [11] the test system is Walker 256 tumor. As to the kind of experiment: animal or person. As to conditions: Walker 256, ip, read-out: ED50 (Effect).
Data set [12] concerns Harding-Passey Melanoma tumor. The experiment in a line: animal or person. The note with it: ip, read-out: ED50 (Effect).
Data set [13] can be described thus: in vivo. As to conditions: ip. The source holds these as a separate data set.

Like-named read-outs stand apart in the source and are kept apart here.

On to `O=C(O)CCCc1ccc(N(CCCl)CCCl)cc1` [Chlorambucil, reference compound], for which the LD50 (as a rule, the dose expected to kill half of the subjects tested) in data set [1] is 55 mg/kg; in data set [2], 7 mg/kg; in [3] it was 13.5 mg/kg; in “in vivo [5]” it was 30 mg/kg. Also, the “ED50 (Effect)” value is on record as more than 31 mg/kg with Hepatoma 130, 2.3 mg/kg in the data set on Harding-Passey Melanoma, 0.42 mg/kg with Walker 256 and 4.3 mg/kg with Hepatoma 130 tumor [4].
For the molecule `Cc1ccc(C(=O)OCC(=O)[C@@]2(O)CC[C@H]3[C@@H]4CCC5=CC(=O)C=C[C@]5(C)[C@H]4[C@@H](O)C[C@@]32C)cc1N(CCCl)CCCl` [prednisolone-21-3'-[N-bis-(β-chloroethyl)-amino]-4'-methyl-benzoate], the antitumor activity result in the data set with tumors is “having the desired antitumor activity”.
Still for that read-out and setting: the result for `C[C@]12CCC(=O)C=C1CC[C@@H]1[C@@H]2[C@@H](O)C[C@@]2(C)[C@H]1CC[C@]2(O)C(=O)COC(=O)C(N)Cc1ccc(N(CCCl)CCCl)cc1` (stereo partly drawn) [hydrocortisone-21-3'-{p-[N-bis-(β-chloroethyl)-amino]-phenyl}-2'-aminopropionate] reads “desired antitumor activity”.
On to `CC(=O)NC(Cc1ccc(N(CCCl)CCCl)cc1)C(=O)OCC(=O)[C@@]1(O)CC[C@H]2[C@@H]3CCC4=CC(=O)CC[C@]4(C)[C@H]3[C@@H](O)C[C@@]21C` (stereo partly drawn) [hydrocortisone-21-3'-{p-[N-bis-(β-chloroethyl)-amino]-phenyl}-2'-acetamido-propionate], for which, in the data set on Walker 256 tumor [6], the “antitumor activity against Walker 256 tumors” value is listed as “same activity”.
On to `C[C@]12C=CC(=O)C=C1CC[C@@H]1[C@@H]2[C@@H](O)C[C@@]2(C)[C@H]1CC[C@]2(O)C(=O)CO` [Prednisolone, pregna-1,4-dien-11β,17α ,21-triol-3,20-dion, reference compound], for which the T.I. in the data set with Ehrlich ascites tumor [7] is more than 8.3; with Hepatoma 130 tumor [4], 6.6; in data set [8] (in vivo, ip) it was less than 2.5; in the data set on Walker 256 tumor [6] (ip), 3.0. For the same molecule, the Lethality entry in the data set with Ehrlich ascites tumor [7] is listed as “no toxicity”. In addition, the Effect result in data set [8] (in vivo, ip, 243 mg/kg) is listed as “no effect”. In addition, the ED50 – broadly, the dose that gives a 50% effect, or the effect in half of the subjects – in the data set on Ehrlich ascites tumor [9] came to 120 mg/kg; in the data set with Hepatoma 130 tumor [10] it was 118 mg/kg; in the data set on Walker 256 tumor [11] it was 214 mg/kg.
For the molecule `C[C@]12CCC(=O)C=C1CC[C@@H]1[C@@H]2[C@@H](O)C[C@@]2(C)[C@H]1CC[C@]2(O)C(=O)COC(=O)c1ccc(N(CCCl)CCCl)cc1` [hydrocortisone-21-p-/N-bis(β -chloroethyl)-amino/-benzoate], the “ED50 (Effect)” value is recorded as 15 mg/kg in the data set on Ehrlich ascites tumor [7]; 28 mg/kg with Hepatoma 130 tumor [4]; 19 mg/kg in data set [8] (intraperitoneal, 11 × dose).
With `CC(=O)NC(Cc1ccc(N(CCCl)CCCl)cc1)C(=O)OCC(=O)[C@@]1(O)CC[C@H]2[C@@H]3CCC4=CC(=O)C=C[C@]4(C)[C@H]3[C@@H](O)C[C@@]21C` (stereo partly drawn) [prednisolone-21-3'-{p-[N-bis-(β-chloroethyl)-amino]-phenyl}-2'-acetamido-propionate], in the data set with Walker 256 tumor [6], the “antitumor activity against Walker 256 tumors” value is given as “active antitumor agent”.
For the molecule `C[C@]12CCC(=O)C=C1CC[C@@H]1[C@@H]2[C@@H](O)C[C@@]2(C)[C@H]1CC[C@]2(O)C(=O)COC(=O)CCCc1ccc(N(CCCl)CCCl)cc1` [hydrocortisone-21-4'-{p-[N-bis-(β-chloroethyl)-amino]-phenyl}-butyrate], the antitumor activity result in the data set with tumors is on record as “desired antitumor activity”.
As for `C[C@]12C=CC(=O)C=C1CC[C@@H]1[C@@H]2[C@@H](O)C[C@@]2(C)[C@H]1CC[C@]2(O)C(=O)COC(=O)CCCc1ccc(N(CCCl)CCCl)cc1` [prednisolone-21-4'-[p-/N-bis(β-chloroethyl)-amino/-phenyl]-butyrate], the LD50 in data set [1] is 380 mg/kg; in data set [2] it was 40 mg/kg; in data set [3], 64 mg/kg. Further, the T.I. turned out to be 2.5 with Hepatoma 130; 6.7 in the data set on Harding-Passey Melanoma; 64 in the data set with Walker 256; 45 in the data set with Hepatoma 130 tumor [4]; 2.2 in [8] (intraperitoneal, 11 × dose); 29 in the data set on Walker 256 tumor [6] (ip). Besides, the ED50 in the data set with Hepatoma 130 (read-out: ED50 (Effect)) is 155 mg/kg; with Harding-Passey Melanoma (read-out: ED50 (Effect)) it was 6 mg/kg; with Walker 256 (Walker 256, read-out: ED50 (Effect)) it was 1 mg/kg; with Hepatoma 130 tumor [10], 5.8 mg/kg; in [12], 3.1 mg/kg; in the data set on Walker 256 tumor [11], 1.1 mg/kg.
Turning to `C[C@]12C=CC(=O)C=C1CC[C@@H]1[C@@H]2C(=O)C[C@@]2(C)[C@H]1CC[C@]2(O)C(=O)COC(=O)c1ccc(N(CCCl)CCCl)cc1` [prednisone-21-p-/N-bis(β-chloroethyl)-amino/-benzoate], the “ED50 (Effect)” value in the data set with Ehrlich ascites tumor [7] came out at 12 mg/kg; in the data set on Hepatoma 130 tumor [4], 58 mg/kg; in [8] (intraperitoneal, 11 × dose), 18 mg/kg. For the same molecule, the Lethality result with Ehrlich ascites tumor [7] and with Hepatoma 130 tumor [4] (1000 mg/kg) was “no toxicity” throughout. This molecule came in with an LD50 in the data set “in vivo [13]” of 97 mg/kg.
As to `C[C@]12C=CC(=O)C=C1CC[C@@H]1[C@@H]2[C@@H](O)C[C@@]2(C)[C@H]1CC[C@]2(O)C(=O)COC(=O)c1ccc(N(CCCl)CCCl)cc1` [prednisolone-21-p-/N-bis(β-chloroethyl)-amino/-benzoate], the antitumor activity result with tumors is given as “desired antitumor activity”. For the same molecule, the “ED50 (Effect)” value is on record as 13 mg/kg in the data set with Ehrlich ascites tumor [7]; 5.6 mg/kg with Hepatoma 130 tumor [4]; 3.4 mg/kg in data set [8] (intraperitoneal, 11 × dose); 9.6 mg/kg with Walker 256 tumor [6] (ip). Besides, the Lethality result in the data set on Ehrlich ascites tumor [7] is given as “no toxicity”.
With `C[C@]12C=CC(=O)C=C1CC[C@@H]1[C@@H]2[C@@H](O)C[C@@]2(C)[C@H]1CC[C@]2(O)C(=O)COC(=O)Cc1ccc(N(CCCl)CCCl)cc1` [prednisolone-21-p-/N-bis(β-chloroethyl)-amino/-phenylacetate], in the data set on Hepatoma 130 tumor [4], the “ED50 (Effect)” value is on record as 27 mg/kg. Also, the LD50 in “in vivo [5]” came to 560 mg/kg.
As for `Cc1ccc(C(=O)OCC(=O)[C@@]2(O)CC[C@H]3[C@@H]4CCC5=CC(=O)CC[C@]5(C)[C@H]4[C@@H](O)C[C@@]32C)cc1N(CCCl)CCCl` [hydrocortisone-21-3'-[N-bis-(β-chloroethyl)-amino]-4'-methylbenzoate], in the data set with tumors, the antitumor activity entry was “desired antitumor activity”.
`C[C@]12C=CC(=O)C=C1CC[C@@H]1[C@@H]2[C@@H](O)C[C@@]2(C)[C@H]1CC[C@]2(O)C(=O)COC(=O)C(N)Cc1ccc(N(CCCl)CCCl)cc1` (stereo partly drawn) [prednisolone-21-3'-{p-[N-bis-(β-chloroethyl)-amino]-phenyl}-2'-aminopropionate]: the antitumor activity entry with tumors is “desired antitumor activity”.
